According to patent US20250171431A1, “HETEROCYCLIC INHIBITORS OF IGF-1R FOR TREATMENT OF DISEASE” (HORIZON THERAPEUTICS IRELAND DAC, priority 2023, published 2025):

What follows are molecules tested against IGF-1R (Homo sapiens (Human), UniProt P08069) (assay: Example B-1: IGF-1R Assay (PC3 cells, IGF1 stimulation, AlphaLISA)). Settings: 200 ng/mL IGF1 stimulation, read-out: Biological Activity against IGF-1R IC50.
Assay type: cell-based
In short: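 PC3 cells were serum-starved 2 h, treated with serially diluted compounds for 2 h, then stimulated with IGF1 (200 ng/mL final) for 30 min. Lysates were read by AlphaLISA; % inhibition was calculated relative to vehicle and EC80 controls, with IC50 values binned into ranges.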

Sequence of IGF-1R (P08069 31-1367): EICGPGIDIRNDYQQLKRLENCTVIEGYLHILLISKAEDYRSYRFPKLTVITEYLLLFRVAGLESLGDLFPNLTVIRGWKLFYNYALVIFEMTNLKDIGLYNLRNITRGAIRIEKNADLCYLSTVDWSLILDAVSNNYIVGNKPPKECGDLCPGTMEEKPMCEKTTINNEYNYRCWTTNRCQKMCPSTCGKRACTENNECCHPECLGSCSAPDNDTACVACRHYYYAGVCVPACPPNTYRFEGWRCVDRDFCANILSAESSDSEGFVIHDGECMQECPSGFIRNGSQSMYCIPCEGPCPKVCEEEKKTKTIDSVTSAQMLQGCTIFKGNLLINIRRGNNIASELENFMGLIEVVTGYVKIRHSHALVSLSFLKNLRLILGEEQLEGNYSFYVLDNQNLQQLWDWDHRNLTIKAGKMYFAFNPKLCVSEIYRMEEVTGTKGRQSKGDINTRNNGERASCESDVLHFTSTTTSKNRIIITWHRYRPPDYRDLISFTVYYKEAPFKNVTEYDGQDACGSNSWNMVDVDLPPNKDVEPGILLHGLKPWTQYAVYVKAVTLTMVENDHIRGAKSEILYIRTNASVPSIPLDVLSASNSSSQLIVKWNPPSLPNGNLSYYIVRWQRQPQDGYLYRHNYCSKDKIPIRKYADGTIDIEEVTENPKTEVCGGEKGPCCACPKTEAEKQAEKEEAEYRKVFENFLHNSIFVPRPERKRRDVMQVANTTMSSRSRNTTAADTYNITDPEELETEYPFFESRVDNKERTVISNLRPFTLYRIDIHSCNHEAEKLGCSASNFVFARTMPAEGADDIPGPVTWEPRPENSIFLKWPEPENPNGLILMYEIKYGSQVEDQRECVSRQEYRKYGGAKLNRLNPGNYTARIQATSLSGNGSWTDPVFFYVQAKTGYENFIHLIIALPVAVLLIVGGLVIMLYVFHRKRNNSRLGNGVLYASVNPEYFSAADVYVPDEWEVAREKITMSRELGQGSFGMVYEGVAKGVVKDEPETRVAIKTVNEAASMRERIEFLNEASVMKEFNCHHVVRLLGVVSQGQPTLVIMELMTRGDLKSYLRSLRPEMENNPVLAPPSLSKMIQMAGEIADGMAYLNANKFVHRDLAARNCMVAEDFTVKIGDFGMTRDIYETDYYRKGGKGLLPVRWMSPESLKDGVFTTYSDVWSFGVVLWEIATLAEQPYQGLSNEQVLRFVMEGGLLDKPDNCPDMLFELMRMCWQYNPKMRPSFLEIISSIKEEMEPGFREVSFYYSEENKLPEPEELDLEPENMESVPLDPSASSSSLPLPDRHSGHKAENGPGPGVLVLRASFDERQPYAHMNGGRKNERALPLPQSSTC

| IC50 [nM] | SMILES |
| --- | --- |
| ≤ 500 | COc1cc(Nc2nccc(Nc3cc4cccc(F)c4[nH]c3=O)n2)cnc1N1CCN(CC(F)(F)F)CC1 [Compound 232, 8-fluoro-3-(2-{5-methoxy-6-[4-(2,2,2-trifluoroethyl)-1-piperazinyl]-3-pyridylamino}-4-pyrimidinylamino)-1,2-dihydro-2-quinolinone] |
| ≤ 500 | COc1cc(Nc2nccc(Nc3cnc4c(c3)CCCCC4)n2)ccc1OCCCN1CCCCC1 [Compound 57, 4-{8-azabicyclo[5.4.0]undeca-1(11),7,9-trien-10-ylamino}-2-[3-methoxy-4-(3-piperidinopropoxy)phenylamino] pyrimidine] |
| ≤ 500 | COc1cc(Nc2nccc(Nc3cnc4c(c3)SC(C)CC4)n2)ccc1OCCCN1CCCCC1 (stereo not drawn) [Compound 61, 2-[3-methoxy-4-(3-piperidinopropoxy)phenylamino]-4-(2-methyl-3,4-dihydro-2H-1-thia-5-azanaphth-7-ylamino)pyrimidine] |
| ≤ 500 | COc1cc(Nc2nccc(Nc3cnc4c(c3)OC(C)CO4)n2)ccc1OCCCN1CCCCC1 (stereo not drawn) [Compound 387, 2-[3-methoxy-4-(3-piperidinopropoxy)phenylamino]-4-(2-methyl-2,3-dihydro-1,4-dioxa-5-aza-7-naphthylamino)pyrimidine] |
| ≤ 500 | O=S1(=O)CCN(CCCOc2ccc(Nc3nccc(Nc4cnc5c(c4)OCCO5)n3)cc2)CC1 [Compound 506, 4-(3-{p-[4-(2,3-dihydro-1,4-dioxa-5-aza-7-naphthylamino)-2-pyrimidinylamino]phenoxy}propyl)-1λ^6,4-thiazinane-1,1-dione] |
| ≤ 500 | COc1cc(N2CCN(C)CC2)ccc1Nc1nccc(Nc2cnc3cc(Cl)ccc3c2)n1 [Compound 464, 4-(7-chloro-3-quinolylamino)-2-[2-methoxy-4-(4-methyl-1-piperazinyl)phenylamino] pyrimidine] |
| ≤ 500 | COc1ccc2cc(Nc3ccnc(Nc4ccc(OCCCN5CCCCC5)c(OC)c4)n3)cnc2c1 [Compound 426, 2-[3-methoxy-4-(3-piperidinopropoxy)phenylamino]-4-(7-methoxy-3-quinolylamino)pyrimidine] |
| ≤ 500 | COc1cc(Nc2nccc(Nc3cnc4cc(F)c(F)cc4c3)n2)cnc1N1CCC(C)(O)CC1 [Compound 156, 1-(5-((4-((6,7-difluoroquinolin-3-yl)amino)pyrimidin-2-yl)amino)-3-methoxypyridin-2-yl)-4-methylpiperidin-4-ol] |
| ≤ 500 | COc1cc(Nc2nccc(Nc3cnc4cc(F)c(F)cc4c3)n2)cnc1N1CCOCC1 [Compound 469, 4-(6,7-difluoro-3-quinolylamino)-2-(5-methoxy-6-morpholino-3-pyridylamino)pyrimidine] |
| 500 to 2000 | COc1cc(Nc2nccc(Nc3cnc4cc(F)c(F)cc4c3)n2)cnc1N1CCN(CC(F)(F)F)CC1 [Compound 474, 4-(6,7-difluoro-3-quinolylamino)-2-{5-methoxy-6-[4-(2,2,2-trifluoroethyl)-1-piperazinyl]-3-pyridylamino}pyrimidine] |
| 500 to 2000 | COc1ccc2cc(Nc3ccnc(Nc4ccc(OCCCN5CCS(=O)(=O)CC5)cc4)n3)cnc2c1 [Compound 400, 4-(3-{p-[4-(7-methoxy-3-quinolylamino)-2-pyrimidinylamino]phenoxy}propyl)-1λ^6,4-thiazinane-1,1-dione] |
| ≤ 500 | CC1(C)CCc2cc(Nc3ccnc(Nc4ccc(OCCCN5CCOCC5)cc4)n3)cnc2C1 [Compound 64, 4-(7,7-dimethyl-5,6,7,8-tetrahydro-3-quinolylamino)-2-[p-(3-morpholinopropoxy)phenylamino] pyrimidine] |
| ≤ 500 | COc1cc(Nc2nccc(Nc3cnc4c(c3)SCCC4)n2)ccc1OCCCN1CCCCC1 [Compound 378, 4-(3,4-dihydro-2H-1-thia-5-azanaphth-7-ylamino)-2-[3-methoxy-4-(3-piperidinopropoxy)phenylamino]pyrimidine] |

| SMILES | IC50 [nM] |
| --- | --- |
| COc1cc(Nc2nccc(Nc3cnc4ccc(OC(F)(F)F)cc4c3)n2)ccc1O[C@H]1C[C@@H](N(C)C)C1 [Compound 128, N2-(4-((1s,3s)-3-(dimethylamino)cyclobutoxy)-3-methoxyphenyl)-N4-(6-(trifluoromethoxy)quinolin-3-yl)pyrimidine-2,4-diamine] | ≤ 500 |
| COc1cc(Nc2nccc(Nc3cnc4c(Cl)cncc4c3)n2)ccc1O[C@H]1C[C@@H](N(C)C)C1 [Compound 84, 4-(8-chloro-1,6-diaza-3-naphthylamino)-2-{3-methoxy-4-[(1s,3s)-3-(dimethylamino)cyclobutoxy]phenylamino}pyrimidine] | 500 to 2000 |
| COc1cc(Nc2nccc(Nc3ccc4ccc(Cl)nc4n3)n2)ccc1O[C@H]1C[C@@H](N(C)C)C1 [Compound 168, N4-(7-chloro-1,8-naphthyridin-2-yl)-N2-(4-((1s,3s)-3-(dimethylamino)cyclobutoxy)-3-methoxyphenyl)pyrimidine-2,4-diamine] | ≤ 500 |
| COc1cc(Nc2nccc(Nc3cnc4c(c3)OCC(C)(C)O4)n2)cnc1O[C@H]1C[C@@H](N(C)C)C1 [Compound 271, 4-(3,3-dimethyl-2,3-dihydro-1,4-dioxa-5-aza-7-naphthylamino)-2-{5-methoxy-6-[(1s,3s)-3-(dimethylamino)cyclobutoxy]-3-pyridylamino}pyrimidine] | ≤ 500 |
| CN(C)[C@H]1C[C@H](Oc2ccc(Nc3nccc(Nc4cnc5c(c4)SCCC5)n3)cc2)C1 [Compound 318, 4-(3,4-dihydro-2H-1-thia-5-azanaphth-7-ylamino)-2-{p-[(1r,3r)-3-(dimethylamino)cyclobutoxy]phenylamino}pyrimidine] | ≤ 500 |
| COc1cc(Nc2nccc(Nc3cnc4c(F)c(F)ccc4c3)n2)ccc1O[C@H]1C[C@H](N(C)C)C1 [Compound 323, 4-(7,8-difluoro-3-quinolylamino)-2-{3-methoxy-4-[(1r,3r)-3-(dimethylamino)cyclobutoxy]phenylamino}pyrimidine] | ≤ 500 |
| COc1cc(Nc2nccc(Nc3cc4ccc(F)cc4[nH]c3=O)n2)ccc1O[C@H]1C[C@@H](N(C)C)C1 [Compound 122, 7-fluoro-3-(2-{3-methoxy-4-[(1s,3s)-3-(dimethylamino)cyclobutoxy]phenyl-amino}-4-pyrimidinylamino)-1,2-dihydro-2-quinolinone] | ≤ 500 |
| COc1cc(Nc2nccc(Nc3cnc4cc(F)cnc4c3)n2)cnc1O[C@H]1C[C@@H](N(C)C)C1 [Compound 85, 4-(7-fluoro-1,5-diaza-3-naphthylamino)-2-{5-methoxy-6-[(1s,3s)-3-(dimethylamino)cyclobutoxy]-3-pyridylamino}pyrimidine] | 500 to 2000 |
| COc1cc(Nc2cc(Nc3cnc4ccccc4n3)ccn2)ccc1O[C@H]1C[C@@H](N(C)C)C1 [Compound 262, 2-{3-methoxy-4-[(1s,3s)-3-(dimethylamino)cyclobutoxy]phenylamino}-4-(2-quinoxalinylamino)pyridine] | ≤ 500 |
| COc1cc(Nc2nccc(Nc3cnc4c(c3)OCC(C)(C)O4)n2)ccc1O[C@H]1C[C@@H](N(C)C)C1 [Compound 268, 4-(3,3-dimethyl-2,3-dihydro-1,4-dioxa-5-aza-7-naphthylamino)-2-{3-methoxy-4-[(1s,3s)-3-(dimethylamino)cyclobutoxy]phenylamino}pyrimidine] | ≤ 500 |
| COc1cc(Nc2nccc(Nc3cnc4c(c3)CCCC4)n2)ccc1O[C@H]1C[C@@H](N(C)C)C1 [Compound 364, 2-{3-methoxy-4-[(1s,3s)-3-(dimethylamino)cyclobutoxy]phenylamino}-4-(5,6,7,8-tetrahydro-3-quinolylamino)pyrimidine] | ≤ 500 |
